Measurements: article PMC9611297, “Design, Synthesis, Anticancer Activity and Molecular Docking of New 1,2,3-Triazole-Based Glycosides Bearing 1,3,4-Thiadiazolyl, Indolyl and Arylacetamide Scaffolds” (Molecules, 2022)
Read-outs that look alike come from different tables or passages of the source.

Experiments:
[1] = tested on: HCT-116 (human colorectal carcinoma) cell line; test: MTT cytotoxicity assay, HCT-116; conditions: read-out: IC50 (µM) ± SD HCT-116
Description: (§3) This test is based on MTT cleavage by mitochondrial dehydrogenases from viable cells [50, 51, 52]. […] After incubation, the media were removed, and 40 µL of MTT (2.5 mg mL^−1) was added to each well. Incubation was resumed for an additional 4 h. The purple formazan dye crystals were solubilized with 200 µL DMSO. Absorbance was measured at 590 nm in a Spectra Max Paradigm Multi-Mode microplate reader (Molecular Devices, LLC, San Jose, CA, USA). Relative cell viability was expressed as the mean percentage of viable cells compared to the untreated control cells.
(§4) All experiments were conducted in triplicate and repeated on three different days. All values are reported as mean ± SD. IC50 values were determined by SPSS Inc. probit analysis (IBM Corp., Armonk, NY, USA).

[2] = tested on: MCF-7 (human breast adenocarcinoma) cell line; test: MTT cytotoxicity assay, MCF-7; conditions: read-out: IC50 (µM) ± SD MCF-7
Description: as §3, §4

EGFR^T790M = EGFR^T790M (Homo sapiens, UniProt P00533, T790M); test: EGFR^T790M kinase inhibition (HTRF assay); type: biochemical; conditions: ATP 1.65 μM, 30 min, room temperature, read-out: IC50 (Mean ± SEM) (µM) EGFR^T790M
Description: (§1) A homogeneous time-resolved fluorescence (HTRF) assay was applied in this test (Sigma). […] The assay was conducted for 30 min at room temperature. The reaction was stopped by the addition of detection reagents that contained EDTA. […] Three independent experiments were performed for each concentration.

EGFR^WT = EGFR^WT (Homo sapiens, UniProt P00533); test: EGFR^WT kinase inhibition (HTRF assay); type: biochemical; conditions: ATP 1.65 μM, 30 min, room temperature, read-out: IC50 (Mean ± SEM) (µM) EGFR^WT
Description: as §1

MCF-7 cells [3] = test: Cell cycle analysis (PI staining, flow cytometry); type: cell-based, human; conditions: MCF-7, 24 h treatment; for cell accumulation at sub-G1 phase (%pre G): untreated 1.99%; for cell accumulation at S phase (%DIP S): untreated 33.85%
Description: Moreover, the cessation of cell division at cell cycle checkpoints is considered one of the main roles of anticancer therapeutics.
(§2) Apoptosis investigation and cell cycle analysis were performed by flow cytometry. MCF-7 cells were seeded at 8 × 10^4 and incubated at 37 °C in 5% CO2 overnight. After treatment with the tested compounds 7 and 15 for 24 h, cell pellets were collected and centrifuged (300 g, 5 min). For cell cycle analysis, cell pellets were fixed with 70% ethanol on ice for 15 min and collected again. The pellets were incubated with propidium iodide (PI) staining solution at room temperature for 1 h and analyzed with a Gallios flow cytometer (Beckman Coulter, Brea, CA, USA). Apoptosis detection was carried out by the FITC AnnexinV/PI commercial kit (Becton Dickenson, Franklin Lakes, NJ, USA) following the manufacturer’s protocol. The samples were analyzed by fluorescence-activated cell sorting (FACS) with a Gallios flow cytometer (Beckman Coulter, Brea, CA, USA) within 1 h after staining. Data were analyzed using Kaluza v 1.2 (Beckman Coulter).

MCF-7 cells [4] = test: Annexin V/PI apoptosis detection by flow cytometry; type: cell-based, human; conditions: MCF-7, 24 h, at IC50 concentration (7: 0.5 μM; 15: 0.6 μM); for Apoptosis Late: control 0.28%; for Apoptosis Early: control 0.46%; for Necrosis: control 1.25%; for Apoptosis Total: control 1.99
Description: The proportion of late apoptosis obtained with compounds 7 and 15 was higher than that of the early phase, leading to the induction of apoptosis and confirming the effectiveness of these derivatives in cancer therapy.
as §2

HER-2 = HER-2 (Homo sapiens, UniProt P04626); test: HER-2 kinase inhibition (HTRF assay); type: biochemical; conditions: ATP 1.65 μM, 30 min, room temperature, read-out: IC50 (Mean ± SEM) (µM) HER-2 (converted)
Description: as §1

[5] = MTT assay, 48 h incubation, mean ± SD

EGFR^WT, sequence (P00533 25-1210): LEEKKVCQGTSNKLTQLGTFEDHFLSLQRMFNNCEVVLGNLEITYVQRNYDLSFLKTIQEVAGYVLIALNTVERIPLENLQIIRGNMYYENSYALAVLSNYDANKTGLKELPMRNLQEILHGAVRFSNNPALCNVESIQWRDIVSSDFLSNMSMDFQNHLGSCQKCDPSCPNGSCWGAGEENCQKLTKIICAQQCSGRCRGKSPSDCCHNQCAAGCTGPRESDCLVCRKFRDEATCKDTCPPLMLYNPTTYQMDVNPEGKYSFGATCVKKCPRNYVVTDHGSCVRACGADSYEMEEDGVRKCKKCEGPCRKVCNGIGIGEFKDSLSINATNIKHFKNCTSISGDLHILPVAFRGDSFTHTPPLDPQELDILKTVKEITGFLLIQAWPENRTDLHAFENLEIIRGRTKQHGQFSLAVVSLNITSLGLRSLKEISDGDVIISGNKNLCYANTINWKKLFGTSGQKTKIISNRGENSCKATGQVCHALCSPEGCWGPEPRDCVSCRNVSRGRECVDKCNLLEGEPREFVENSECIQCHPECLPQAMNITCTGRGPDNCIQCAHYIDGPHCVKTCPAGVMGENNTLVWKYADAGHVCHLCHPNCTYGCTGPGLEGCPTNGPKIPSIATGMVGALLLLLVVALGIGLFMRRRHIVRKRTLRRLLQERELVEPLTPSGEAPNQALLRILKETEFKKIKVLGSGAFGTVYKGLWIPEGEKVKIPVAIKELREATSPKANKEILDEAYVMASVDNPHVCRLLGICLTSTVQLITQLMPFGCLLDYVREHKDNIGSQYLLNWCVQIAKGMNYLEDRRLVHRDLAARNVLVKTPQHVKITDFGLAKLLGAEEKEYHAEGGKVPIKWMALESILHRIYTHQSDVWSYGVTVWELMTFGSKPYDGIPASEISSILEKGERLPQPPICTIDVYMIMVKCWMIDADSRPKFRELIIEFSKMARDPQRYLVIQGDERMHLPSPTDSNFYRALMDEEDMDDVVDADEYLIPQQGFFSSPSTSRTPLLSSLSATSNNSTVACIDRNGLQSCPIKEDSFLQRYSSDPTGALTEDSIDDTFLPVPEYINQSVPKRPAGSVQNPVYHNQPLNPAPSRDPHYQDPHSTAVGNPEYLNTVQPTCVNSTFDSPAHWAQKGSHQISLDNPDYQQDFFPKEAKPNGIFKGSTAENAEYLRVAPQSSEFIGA
HER-2, sequence (P04626 23-1255): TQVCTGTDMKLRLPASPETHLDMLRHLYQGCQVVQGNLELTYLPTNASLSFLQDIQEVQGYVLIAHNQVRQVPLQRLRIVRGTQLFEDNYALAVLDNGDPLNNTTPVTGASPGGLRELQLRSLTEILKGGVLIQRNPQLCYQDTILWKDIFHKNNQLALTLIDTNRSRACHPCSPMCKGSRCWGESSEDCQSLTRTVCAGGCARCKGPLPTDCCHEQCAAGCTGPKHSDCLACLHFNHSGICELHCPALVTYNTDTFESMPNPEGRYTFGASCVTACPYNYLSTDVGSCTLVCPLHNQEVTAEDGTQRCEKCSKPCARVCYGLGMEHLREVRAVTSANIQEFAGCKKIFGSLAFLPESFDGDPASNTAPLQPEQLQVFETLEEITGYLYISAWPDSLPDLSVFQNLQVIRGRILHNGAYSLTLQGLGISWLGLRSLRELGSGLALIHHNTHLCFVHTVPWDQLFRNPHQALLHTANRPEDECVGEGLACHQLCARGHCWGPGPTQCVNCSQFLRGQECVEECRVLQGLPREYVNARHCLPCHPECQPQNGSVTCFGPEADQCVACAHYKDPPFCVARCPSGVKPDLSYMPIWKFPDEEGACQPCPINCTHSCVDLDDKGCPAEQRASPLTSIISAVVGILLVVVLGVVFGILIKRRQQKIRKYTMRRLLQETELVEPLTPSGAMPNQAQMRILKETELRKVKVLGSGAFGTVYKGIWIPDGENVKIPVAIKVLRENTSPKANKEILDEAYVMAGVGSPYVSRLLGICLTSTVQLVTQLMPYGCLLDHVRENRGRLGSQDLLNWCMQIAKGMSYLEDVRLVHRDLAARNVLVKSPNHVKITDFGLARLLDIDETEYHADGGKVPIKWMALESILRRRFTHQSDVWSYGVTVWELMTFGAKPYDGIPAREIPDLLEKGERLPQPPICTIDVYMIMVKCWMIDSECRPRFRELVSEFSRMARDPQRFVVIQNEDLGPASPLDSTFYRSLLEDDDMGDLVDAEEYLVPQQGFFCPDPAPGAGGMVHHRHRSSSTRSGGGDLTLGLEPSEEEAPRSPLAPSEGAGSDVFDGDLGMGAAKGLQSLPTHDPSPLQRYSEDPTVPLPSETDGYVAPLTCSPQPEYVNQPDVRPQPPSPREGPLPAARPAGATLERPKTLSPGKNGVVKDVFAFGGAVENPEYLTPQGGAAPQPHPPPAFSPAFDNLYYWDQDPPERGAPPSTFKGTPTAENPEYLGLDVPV
EGFR^T790M, sequence (P00533 25-1210 T790M): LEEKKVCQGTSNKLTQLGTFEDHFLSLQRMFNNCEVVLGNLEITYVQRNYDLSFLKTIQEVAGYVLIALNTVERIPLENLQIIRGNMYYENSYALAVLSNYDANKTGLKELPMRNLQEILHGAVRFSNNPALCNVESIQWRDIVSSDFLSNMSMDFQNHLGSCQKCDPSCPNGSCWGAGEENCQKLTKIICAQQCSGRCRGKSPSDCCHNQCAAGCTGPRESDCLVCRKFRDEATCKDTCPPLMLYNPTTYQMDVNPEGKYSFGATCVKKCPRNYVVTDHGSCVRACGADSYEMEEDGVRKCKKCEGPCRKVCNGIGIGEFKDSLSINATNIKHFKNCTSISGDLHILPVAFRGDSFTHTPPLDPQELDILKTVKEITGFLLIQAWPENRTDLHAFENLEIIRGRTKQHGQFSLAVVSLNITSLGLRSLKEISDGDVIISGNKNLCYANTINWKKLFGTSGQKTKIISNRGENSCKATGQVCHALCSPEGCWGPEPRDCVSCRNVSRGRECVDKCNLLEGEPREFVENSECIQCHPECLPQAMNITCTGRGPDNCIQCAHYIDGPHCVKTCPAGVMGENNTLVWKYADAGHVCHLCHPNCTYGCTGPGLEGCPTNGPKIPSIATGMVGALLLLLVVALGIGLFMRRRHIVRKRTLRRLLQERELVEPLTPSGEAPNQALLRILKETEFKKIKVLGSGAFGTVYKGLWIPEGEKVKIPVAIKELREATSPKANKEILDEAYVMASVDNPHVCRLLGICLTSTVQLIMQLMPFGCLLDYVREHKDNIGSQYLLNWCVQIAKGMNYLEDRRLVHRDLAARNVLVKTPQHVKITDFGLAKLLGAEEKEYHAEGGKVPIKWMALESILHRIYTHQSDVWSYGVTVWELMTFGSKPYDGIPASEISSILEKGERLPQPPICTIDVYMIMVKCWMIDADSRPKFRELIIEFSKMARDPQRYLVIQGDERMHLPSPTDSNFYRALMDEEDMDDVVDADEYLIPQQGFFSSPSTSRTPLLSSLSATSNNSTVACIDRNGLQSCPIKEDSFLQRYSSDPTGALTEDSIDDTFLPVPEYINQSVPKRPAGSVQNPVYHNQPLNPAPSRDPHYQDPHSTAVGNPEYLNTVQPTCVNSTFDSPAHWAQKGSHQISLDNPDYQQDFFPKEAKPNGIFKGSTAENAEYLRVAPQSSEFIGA

melting point [°C] | Compound | IC50 ([1]; Homo sapiens, HCT-116, 48 h) [µM] | IC50 ([2]; Homo sapiens, MCF7, 48 h) [µM] | further results
131 to 132 | CCn1cc(C=Nc2nnc(SCCn3cc(CO[C@@H]4O[C@H](COC(C)=O)[C@@H](OC(C)=O)[C@H](OC(C)=O)[C@H]4OC(C)=O)nn3)s2)c2ccccc21 [Compound 5, 1-(1-Ethyl-1H-indol-3-yl)-N-(5-((2-(4-({[2,3,4,6-tetra-O-acetyl-β-D-glucopyranosyl]oxy}methyl)-1H-1,2,3-triazol-1-yl)ethyl)thio)-1,3,4-thiadiazol-2-yl)methanimine] | 22.6 ± 0.2 | 13.9 ± 0.2 | 
136 to 138 | CCn1cc(C=Nc2nnc(SCCn3cc(CO[C@@H]4OC[C@@H](OC(C)=O)[C@H](OC(C)=O)[C@H]4OC(C)=O)nn3)s2)c2ccccc21 [Compound 6, 1-(1-Ethyl-1H-indol-3-yl)-N-(5-((2-(4-({[2,3,4-tri-O-acetyl-β-D-xylopyranos-yl]oxy}methyl)-1H-1,2,3-triazol-1-yl)ethyl)thio)-1,3,4-thiadiazol-2-yl)methanimine] | 20.8 ± 0.2 | 10.8 ± 1.5 | 
210 to 213 | CCn1cc(C=Nc2nnc(SCCn3cc(CO[C@@H]4O[C@H](CO)[C@@H](O)[C@H](O)[C@H]4O)nn3)s2)c2ccccc21 [Compound 7, 1-(1-Ethyl-1H-indol-3-yl)-N-(5-((2-(4-({[β-D-glucopyranosyl]oxy}methyl)-1H-1,2,3-triazol-1-yl)ethyl)thio)-1,3,4-thiadiazol-2-yl)methanimine] | 15.5 ± 0.2 | 0.5 | IC50 (EGFR^T790M): 1.12 ± 0.55 µM; IC50 (EGFR^WT): 0.3 ± 0.01 µM; cell accumulation at sub-G1 phase (%pre G) (MCF-7 cells [3]): 34.61%; cell accumulation at S phase (%DIP S) (MCF-7 cells [3]): 43.51%; Apoptosis Late (MCF-7 cells [4]): 18.81%; Apoptosis Early (MCF-7 cells [4]): 4.39%; Necrosis (MCF-7 cells [4]): 11.41%; Apoptosis Total (MCF-7 cells [4]): 34.61%; IC50 (HER-2): 2.25 ± 0.3 µM
203 to 204 | CCn1cc(C=Nc2nnc(SCCn3cc(CO[C@@H]4OC[C@@H](O)[C@H](O)[C@H]4O)nn3)s2)c2ccccc21 [Compound 8, 1-(1-Ethyl-1H-indol-3-yl)-N-(5-((2-(4-({[β-D-Xylopyranosyl]oxy}methyl)-1H-1,2,3-triazol-1-yl)ethyl)thio)-1,3,4-thiadiazol-2-yl)methanimine] | 4.6 ± 0.1 | 4.2 ± 0.1 | IC50 (EGFR^T790M): 1.95 ± 0.02 µM; IC50 (EGFR^WT): 0.38 ± 0.05 µM; IC50 (HER-2): 2.77 ± 0.13 µM
95 to 96 | CC(=O)O[C@@H]1[C@@H](OC(C)=O)[C@H](OCc2cn(CC(=O)Nc3ccc(C)cc3)nn2)OC[C@H]1OC(C)=O [Compound 11, 2-(4-({[2,3,4-Tri-O-acetyl-β-D-xylopyranosyl]oxy}methyl)-1H-1,2,3-triazol-1-yl)-N-(p-tolyl)acetamide] | 15.4 ± 0.2 | 0.8 | IC50 (EGFR^T790M): 11.8 ± 0.05 µM; IC50 (EGFR^WT): 6.45 ± 0.1 µM; IC50 (HER-2): 8.6 ± 0.2 µM
98 to 99 | CC(=O)OC[C@H]1O[C@@H](OCc2cn(CC(=O)Nc3ccc(C)cc3)nn2)[C@H](OC(C)=O)[C@@H](OC(C)=O)[C@H]1OC(C)=O [Compound 12, 2-(4-({[2,3,4,6-Tetra-O-acetyl-β-D-galactopyranosyl]oxy}methyl)-1H-1,2,3-triazol-1-yl)-N-(p-tolyl)acetamide] | 2.2 ± 0.1 | 5.7 ± 0.1 | IC50 (EGFR^T790M): 15.2 ± 0.2 µM; IC50 (EGFR^WT): 12.7 ± 0.15 µM; IC50 (HER-2): 18.4 µM
142 to 144 | CC(=O)O[C@@H]1[C@@H](OC(C)=O)[C@H](OCc2cn(CC(=O)Nc3ccc(F)cc3)nn2)OC[C@H]1OC(C)=O [Compound 13, 2-(4-({[2,3,4-Tri-O-acetyl-β-D-xylopyranosyl]oxy}methyl)-1H-1,2,3-triazol-1-yl)-N-(4-fluorophenyl)acetamide] | 38.2 ± 0.5 | 34.4 ± 0.4 | 
193 to 194 | Cc1ccc(NC(=O)Cn2cc(CO[C@@H]3OC[C@@H](O)[C@H](O)[C@H]3O)nn2)cc1 [Compound 15, 2-(4-({[β-D-Xylopyranosyl]oxy}methyl)-1H-1,2,3-triazol-1-yl)-N-(p-tolyl)acetamide] | 11.4 ± 0.3 | 0.6 | IC50 (EGFR^T790M): 1.5 ± 0.11 µM; IC50 (EGFR^WT): 0.21 ± 0.05 µM; cell accumulation at sub-G1 phase (%pre G) (MCF-7 cells [3]): 42.45%; cell accumulation at S phase (%DIP S) (MCF-7 cells [3]): 52.08%; Apoptosis Late (MCF-7 cells [4]): 25.48%; Apoptosis Early (MCF-7 cells [4]): 2.69%; Necrosis (MCF-7 cells [4]): 14.28%; Apoptosis Total (MCF-7 cells [4]): 42.45%; IC50 (HER-2): 2.18 ± 0.42 µM
199 to 200 | Cc1ccc(NC(=O)Cn2cc(CO[C@@H]3O[C@H](CO)[C@H](O)[C@H](O)[C@H]3O)nn2)cc1 [Compound 16, 2-(4-({[β-D-Galactopyranosyl]oxy}methyl)-1H-1,2,3-triazol-1-yl)-N-(p-tolyl)acetamide] | 35.7 ± 0.4 | 20.3 ± 0.9 | 
197 to 198 | O=C(Cn1cc(CO[C@@H]2OC[C@@H](O)[C@H](O)[C@H]2O)nn1)Nc1ccc(F)cc1 [Compound 17, 2-(4-({[β-D-Xylopyranosyl]oxy}methyl)-1H-1,2,3-triazol-1-yl)-N-(4-fluorophenyl)acetamide] | 26.5 ± 0.3 | 30.1 ± 0.4 | 

Second part, the compound before the results:

Compound | melting point [°C] | IC50 ([1]; Homo sapiens, HCT-116, 48 h) [µM] | IC50 ([2]; Homo sapiens, MCF7, 48 h) [µM] | further results
CCn1cc(/C=N\c2nnc(S)s2)c2ccccc21 [Compound 1] |  | 46.9 ± 0.5 | 18.1 ± 0.2 | 
CCn1cc(C=Nc2nnc(SCCBr)s2)c2ccccc21 [Compound 2, N-(5-((2-Bromoethyl)thio)-1,3,4-thiadiazol-2-yl)-1-(1-ethyl-1H-indol-3-yl)methanimine] | 90 to 92 |  |  | IC50 [1, 5]: 52.7 ± 0.6 µM; IC50 [2, 5]: 14.1 ± 0.3 µM
CCn1cc(C=Nc2nnc(SCCN=[N+]=[N-])s2)c2ccccc21 [Compound 3, N-(5-((2-Azidoethyl)thio)-1,3,4-thiadiazol-2-yl)-1-(1-ethyl-1H-indol-3-yl)methanimine] | 101 to 102 | 30.8 ± 0.4 | 1.1 ± 0.1 | 
Cc1ccc(NC(=O)CN=[N+]=[N-])cc1 [Compound 9a] |  | 42.3 ± 0.6 | 24.1 ± 0.3 | 
[N-]=[N+]=NCC(=O)Nc1ccc(F)cc1 [Compound 9b] |  | 33.3 ± 0.4 | 26.4 ± 0.3 | 
CC(=O)OC[C@H]1O[C@@H](OCc2cn(CC(=O)Nc3ccc(F)cc3)nn2)[C@H](OC(C)=O)[C@@H](OC(C)=O)[C@H]1OC(C)=O [Compound 14, 2-(4-({[2,3,4,6-Tetra-O-acetyl-β-D-galactopyranosyl]oxy}methyl)-1H-1,2,3-triazol-1-yl)-N-(4-fluorophenyl)acetamide] |  | 33.8 ± 0.3 | 35.3 ± 0.3 | 
O=C(Cn1cc(CO[C@@H]2O[C@H](CO)[C@H](O)[C@H](O)[C@H]2O)nn1)Nc1ccc(F)cc1 [Compound 18, 2-(4-({[β-D-Galactopyranosyl]oxy}methyl)-1H-1,2,3-triazol-1-yl)-N-(4-fluorophenyl)acetamide] |  | 28.8 ± 0.1 | 31.6 ± 0.5 | 
COc1cccc2c1C(=O)c1c(O)c3c(c(O)c1C2=O)C[C@@](O)(C(=O)CO)C[C@@H]3O[C@H]1C[C@H](N)[C@H](O)[C@H](C)O1 [Doxorubicin, reference compound] |  | 12.1 ± 0.2 | 9.4 ± 0.1 | 
